Assays:
mice = assay: In vivo delivery of FLuc-mRNA lipid nanoparticles in mice, in vivo imaging (IVIS); details: for IVIS: Fluc-mRNA
Method in brief: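 Mice (n=3) received about 75 μL FLuc-mRNA LNP per mouse intramuscularly (rectus femoris), intravenously (tail vein), intraperitoneally or subcutaneously (back). After injection, D-luciferin (200 μL, 15 mg/mL) was given i.p. 10-15 min before IVIS imaging.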

[1] = Potential characterization of nucleic acid lipid nanoparticle preparations; type: physicochemical
Protocol: 20 μL of the nucleic acid lipid nanoparticle solution (containing about 0.04 mg/mL mRNA) was taken and added with 780 μL of ultrapure water, used a pipette tip to gently blow and mix, and the potential of the nanopreparation was detected by Malvern particle sizer (model ZEN3700).
27.5 μL nucleic acid lipid nanoparticle solution (containing about 0.04 mg/mL mRNA) was taken and added with 200 μL ultrapure water. A pipette tip was used to gently blow the sample and mix well. The particle size of the nanopreparation was detected by Malvern Dynamic Light Scattering Instrument (Malvern Instruments Ltd., ZEN3700, UK). After the detection, the sample was recovered to an EP tube, and 600 μL of ultrapure water was added, gently blown with a pipette tip, and the potential of the nanopreparation was measured by a Malvern particle size meter.

[2] = Particle size and PDI of nucleic acid lipid nanoparticle preparations by dynamic light scattering; type: physicochemical
Method in brief: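 Size read by DLS after diluting the LNP preparation (approx. 0.04 mg/mL mRNA) in ultrapure water with gentle pipette mixing. The same sample, recovered and diluted further with water, was then used for zeta potential measurement.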

[3] = IM, DMG-PEG2000:DSPC:Chol:compound 1.40:11.15:38.95:48.50, N/P 30
[4] = DMG-PEG2000:DSPC:Chol:compound 1.40:11.15:38.95:48.50, N/P 30
[5] = IV, body, DMG-PEG2000:DSPC:Chol:compound 1.00:10.00:33.00:56.00, N/P 42
[6] = IV, body, DMG-PEG2000:DSPC:Chol:compound 1.40:11.15:38.95:48.50, N/P 30
[7] = IV, liver, DMG-PEG2000:DSPC:Chol:compound 1.00:10.00:33.00:56.00, N/P 42
[8] = IV, liver, DMG-PEG2000:DSPC:Chol:compound 1.40:11.15:38.95:48.50, N/P 30
[9] = IV, lung, DMG-PEG2000:DSPC:Chol:compound 1.00:10.00:33.00:56.00, N/P 42
[10] = IV, lung, DMG-PEG2000:DSPC:Chol:compound 1.40:11.15:38.95:48.50, N/P 30
[11] = IV, spleen, DMG-PEG2000:DSPC:Chol:compound 1.00:10.00:33.00:56.00, N/P 42
[12] = IV, spleen, DMG-PEG2000:DSPC:Chol:compound 1.40:11.15:38.95:48.50, N/P 30
[13] = DMG-PEG2000:DSPC:Chol:compound 1.00:10.00:33.00:56.00, N/P 42
[14] = DMG-PEG2000:DSPC:Chol:compound 1.40:11.15:38.95:48.50, N/P 20
[15] = IM, DMG-PEG2000:DSPC:Chol:compound 1.40:11.15:38.95:48.50, N/P 40
[16] = IV, body, DMG-PEG2000:DSPC:Chol:compound 1.40:11.15:38.95:48.50, N/P 40
[17] = IV, liver, DMG-PEG2000:DSPC:Chol:compound 1.40:11.15:38.95:48.50, N/P 40
[18] = IV, lung, DMG-PEG2000:DSPC:Chol:compound 1.40:11.15:38.95:48.50, N/P 40
[19] = IV, spleen, DMG-PEG2000:DSPC:Chol:compound 1.40:11.15:38.95:48.50, N/P 40
[20] = DMG-PEG2000:DSPC:Chol:compound 1.40:11.15:38.95:48.50, N/P 40
[21] = IV, liver, DMG-PEG2000:DSPC:Chol:compound 1.00:10.00:33.00:56.00, N/P 35.5
[22] = IV, lung, DMG-PEG2000:DSPC:Chol:compound 1.00:10.00:33.00:56.00, N/P 35.5
[23] = IV, spleen, DMG-PEG2000:DSPC:Chol:compound 1.00:10.00:33.00:56.00, N/P 35.5
[24] = DMG-PEG2000:DSPC:Chol:compound 1.00:10.00:33.00:56.00, N/P 35.5

| Compound | IVIS (mice; [3]) | Zeta potential (mV) [1, 4] | PDI [2, 4] | Particle size (nm) [2, 4] | IVIS (mice; [6]) | % of organ targeting (mice; [8]) | IVIS (mice; [8]) | % of organ targeting (mice; [10]) | IVIS (mice; [10]) | % of organ targeting (mice; [12]) | IVIS (mice; [12]) | other results |
| --- | --- | --- | --- | --- | --- | --- | --- | --- | --- | --- | --- | --- |
| CCCCCCCCCCCCNC(=O)C(O)CNCCN(C)CCN(CC(O)C(=O)NCCCCCCCCCCCC)CC(O)C(=O)NCCCCCCCCCCCC (stereo not drawn) [Compound L0290] | 3.06E+05 | 15.97 mV | 0.17 | 89.51 nm | – | – | – | – | – | – | – | IVIS (mice; IV, organ not given, DMG-PEG2000:DSPC:Chol:compound 1.40:11.15:38.95:48.50, N/P 30): 1.18E+06 |
| CCCCCCC(CCCCCC)C(=O)OCCCCCCOC(=O)C(O)CN(C)CCN(C)CCN(C)CC(O)C(=O)OCCCCCCOC(=O)C(CCCCCC)CCCCCC (stereo not drawn) [Compound L0291] | 1.87E+07 | 15.07 mV | 0.17 | 259.67 nm | 1.83E+07 | 61.07% | 3.30E+06 | 3.97% | 2.14E+05 | 34.97% | 1.89E+06 | IVIS (mice; [5]): 2.60E+07; % of organ targeting (mice; [7]): 5.08%; IVIS (mice; [7]): 1.32E+06; % of organ targeting (mice; [9]): 5.76%; IVIS (mice; [9]): 1.50E+06; % of organ targeting (mice; [11]): 89.17%; IVIS (mice; [11]): 2.32E+07; PDI [2, 13]: 0.13; Particle size (nm) [2, 13]: 221.70 nm |
| CCCCCCCCC(CCCCCC)C(=O)OCCCCCCOC(=O)C(O)CN(C)CCN(C)CCN(C)CC(O)C(=O)OCCCCCCOC(=O)C(CCCCCC)CCCCCCCC (stereo not drawn) [Compound L0292] | 1.05E+05 | 13.33 mV | 0.22 | 151.20 nm | 9.82E+06 | 25.18% | 3.22E+06 | 16.03% | 2.05E+06 | 58.80% | 7.53E+06 | – |
| CCCCCCC(CCCCCC)C(=O)OCCCCOC(=O)C(O)CN(CCCN(C)CCCN(CC(O)C(=O)OCCCCOC(=O)C(CCCCCC)CCCCCC)CC(O)C(=O)OCCCCOC(=O)C(CCCCCC)CCCCCC)CC(O)C(=O)OCCCCOC(=O)C(CCCCCC)CCCCCC (stereo not drawn) [Compound L0294] | 3.81E+07 | 9.23 mV | 0.13 | 129.13 nm | 3.72E+08 | 38.21% | 5.13E+07 | 7.55% | 1.01E+07 | 54.25% | 7.28E+07 | – |
| CCCCCCCCC(CCCCCC)C(=O)OCCCCCCOC(=O)C(O)CN(CCCN(C)CCCN(CC(O)C(=O)OCCCCCCOC(=O)C(CCCCCC)CCCCCCCC)CC(O)C(=O)OCCCCCCOC(=O)C(CCCCCC)CCCCCCCC)CC(O)C(=O)OCCCCCCOC(=O)C(CCCCCC)CCCCCCCC (stereo not drawn) [Compound L0295] | 5.87E+07 | 10.63 mV | 0.10 | 135.33 nm | 9.48E+07 | 33.17% | 2.38E+07 | 5.87% | 4.20E+06 | 60.96% | 4.37E+07 | – |
| CCCCCCOC(C)OCCCCCCOC(=O)C(O)CN(C)CCN(C)CCN(C)CC(O)C(=O)OCCCCCCOC(C)OCCCCCC (stereo not drawn) [Compound L0300] | – | – | – | – | – | – | – | – | – | – | – | IVIS (mice; IM, DMG-PEG2000:DSPC:Chol:compound 1.40:11.15:38.95:48.50, N/P 20): 1.09E+06; IVIS (mice; IV, organ not given, DMG-PEG2000:DSPC:Chol:compound 1.40:11.15:38.95:48.50, N/P 20): 7.12E+05; Zeta potential (mV) [1, 14]: 5.14 mV; PDI [2, 14]: 0.13; Particle size (nm) [2, 14]: 157.77 nm |
| CCCCCCCCCCCCNC(=O)C(O)CN(CCCN(CCCN(CC(O)C(=O)NCCCCCCCCCCCC)CC(O)C(=O)NCCCCCCCCCCCC)CC(O)C[N+](C)(C)C)CC(O)C(=O)NCCCCCCCCCCCC (stereo not drawn) [Compound L0302] | – | – | – | – | – | – | – | – | – | – | – | IVIS (mice; [15]): 6.87E+05; IVIS (mice; [16]): 4.41E+06; % of organ targeting (mice; [17]): 1.31%; IVIS (mice; [17]): 2.05E+05; % of organ targeting (mice; [18]): 97.12%; IVIS (mice; [18]): 1.52E+07; % of organ targeting (mice; [19]): 1.57%; IVIS (mice; [19]): 2.47E+05; Zeta potential (mV) [1, 20]: 16.93 mV; PDI [2, 20]: 0.21; Particle size (nm) [2, 20]: 132.07 nm |
| CCCCCCCCCCCCNCC(O)CN(CCCCCN(C)CCCCCN(CC(O)CNCCCCCCCCCCCC)CC(O)C(=O)NCCCCCCCCCCCC)CC(O)C(=O)NCCCCCCCCCCCC (stereo not drawn) [Compound L0303] | 9.76E+05 | 12.97 mV | 0.10 | 122.57 nm | 1.33E+08 | 2.25% | 7.60E+06 | 96.16% | 3.25E+08 | 1.59% | 5.38E+06 | IVIS (mice; [5]): 2.40E+08; % of organ targeting (mice; [7]): 0.64%; IVIS (mice; [7]): 2.70E+06; % of organ targeting (mice; [9]): 98.72%; IVIS (mice; [9]): 4.17E+08; % of organ targeting (mice; [11]): 0.64%; IVIS (mice; [11]): 2.70E+06; PDI [2, 13]: 0.09; Particle size (nm) [2, 13]: 132.10 nm |
| CCCCCCCCCCNC(=O)C(O)CN(CCCN(CCCN(CCO)CCO)CCCN(CC(O)C(=O)NCCCCCCCCCC)CC(O)C(=O)NCCCCCCCCCC)CC(O)C(=O)NCCCCCCCCCC (stereo not drawn) [Compound L0304] | – | – | – | – | – | – | – | – | – | – | – | IVIS (mice; [15]): 3.48E+05; IVIS (mice; IV, body, DMG-PEG2000:DSPC:Chol:compound 1.00:10.00:33.00:56.00, N/P 35.5): 9.15E+06; IVIS (mice; [16]): 1.29E+07; % of organ targeting (mice; [21]): 2.63%; IVIS (mice; [21]): 6.18E+05; % of organ targeting (mice; [17]): 2.30%; IVIS (mice; [17]): 7.31E+05; % of organ targeting (mice; [22]): 90.44%; IVIS (mice; [22]): 2.12E+07; % of organ targeting (mice; [18]): 90.53%; IVIS (mice; [18]): 2.87E+07; % of organ targeting (mice; [23]): 6.93%; IVIS (mice; [23]): 1.62E+06; % of organ targeting (mice; [19]): 7.17%; IVIS (mice; [19]): 2.27E+06; Zeta potential (mV) [1, 20]: 11.93 mV; PDI [2, 24]: 0.15; Particle size (nm) [2, 24]: 121.27 nm; PDI [2, 20]: 0.14; Particle size (nm) [2, 20]: 101.73 nm |

Reference: patent US12233161B1, “Lipids and lipid nanoparticle formulations” (LONGUIDE BIOPHARMA CORPORATION, priority 2024, dated 2025)
